Our source for the melting point values is a melting point compilation (Tetko et al.).

As to `CC(C(=O)O)c1ccc(Br)cc1` (stereo not given), the melting point fell in the range of 54 to 56 °C. `CCOC(=O)c1ccc(S(=O)(=O)Cl)c(Br)c1` showed a melting point of 48 to 50 °C.

Take `CCOc1c(OC)cc(C=O)cc1OC`: the melting point lay in the range of 48 to 50 °C. `CCCCOc1ccc(C(C)=O)cc1OC` returned a melting point of 47 to 49 °C. With `CC1CCC(C(C)C)C(OC(=O)CCl)C1` (stereo not given) the figure was 65 to 66 °C. `O=C(Nc1nnc(C2CC2)s1)OCC(F)(F)F` displayed a melting point of 197 to 199 °C. With `CC(=O)NCc1ccc(S(N)(=O)=O)s1` the figure was 121 to 123 °C.

Compound `Nc1cc(F)c(Br)cc1C(=O)O` returned a melting point of 189 to 191 °C.

In turn, `CCCN1Cc2ccc(N)cc2C1` had a melting point of 48 to 50 °C.

In the case of `COc1cc2ncn(CCC(=O)O)c(=O)c2cc1OC`, the melting point was 95 to 97 °C. With `Nc1nnc(N2CCC(C(=O)O)CC2)[nH]1` the figure was 264 to 266 °C. With `COc1ccc(NC(=O)CC#N)cc1Cl` the figure was 110 to 112 °C; with `Nc1cc(F)ccc1OCC1CCCO1` (stereo not given), 87 to 89 °C. The compound `O=C(O)CSCc1nc2scc(-c3cccs3)c2c(=O)[nH]1` registered a melting point of 148 to 150 °C.

For `CC(C)C(Oc1ccccc1Br)C(=O)O` (stereo not given), the melting point was 63 to 65 °C.

`NNc1nc(-c2ccc(Cl)cc2)no1` yielded a melting point of 179 to 181 °C. With `CC(C)(C)OC(=O)N1CCOCC1C(=N)NO` (stereo not given) the figure was 154 to 156 °C; with `CS(=O)(=O)c1ccsc1N`, 90 to 92 °C; with `Nc1cccc(S(=O)(=O)Nc2nccs2)c1`, 170 to 172 °C. In turn, `CNC(=CC(=O)c1ccccc1C)NC` returned a melting point of 206 to 208 °C. Take `O=C(O)COc1ccc(Oc2ccccn2)cc1`: the melting point fell in the range of 154 to 156 °C. `C=CCn1c(SCCCCCCCCCCCC)nc2scc(-c3ccccc3)c2c1=O`: the melting point lay within 84 to 86 °C.

The compound `O=C(O)c1ccnc(Cl)c1F` returned a melting point of 194 to 196 °C. Turning to `CNC(=S)NC1CC1`, the melting point fell in the range of 108 to 110 °C. Take `O=C1C=CC(=O)N1c1cccc(O)c1`: the melting point was in the range of 113 to 115 °C.

Compound `N#CCc1nc2cc(F)ccc2s1` gave a melting point of 133 to 135 °C. With `CC(=O)N1CCC(O)C1` (stereo not given) the figure was 77 to 79 °C. Compound `CS/C(=N\C#N)N1CCOCC1` yielded a melting point of 126 to 128 °C.

Compound `Cn1cc(C(=O)O)c(C(C)(C)C)n1` registered a melting point of 140 to 142 °C. The compound `COc1ccc(S(=O)(=O)Cl)cc1[N+](=O)[O-]` gave a melting point of 58 to 60 °C.

Take `CC(=O)N1CCC(NC(=O)OCC(F)(F)F)CC1`: the melting point is 115 to 124 °C.

As for `Cc1nn(C2CCS(=O)(=O)C2)c2ncc(C=O)cc12` (stereo not given), the melting point was 149 to 151 °C. Take `Nc1cc(Br)cnc1-n1cccn1`: the melting point fell in the range of 72 to 74 °C.

On to `N#Cc1ccc(C=CC(=O)O)cc1`, for which the melting point is 250 to 252 °C. The compound `Cc1ccc(CNC(=S)Nc2ccccc2)cc1` had a melting point of 147 to 149 °C. With `Nc1cc(-c2ccccc2Br)no1` the figure was 74 to 76 °C; with `NC(=O)c1c[nH]c2ccccc12`, 201 to 203 °C; with `CN(c1cccc(Cl)c1)S(=O)(=O)c1cccc(C(=O)O)c1`, 162 to 164 °C. With `CCN(CC)S(=O)(=O)c1ccc(F)c(C(=O)O)c1` the figure was 161 to 163 °C; with `CC(C)(C)OC(=O)NC(CC(=O)O)C1CC1` (stereo not given), 111 to 113 °C; with `CC(C)(C)OC(=O)C1CCN(C(=O)OCc2ccccc2)CC1`, 56 to 58 °C.

On to `O=C(O)C1=CCCS1`, for which the melting point is 126 to 128 °C.

For `Cc1ccc2sc(C3CCNCC3)nc2c1`, the melting point was 111 to 113 °C.

The compound `Nc1cncc(Cl)n1` returned a melting point of 149 to 151 °C. In turn, `Nc1nnc(Cc2ccsc2)o1` yielded a melting point of 151 to 153 °C. On to `COc1cccc(C(N)C(=O)O)c1` (stereo not given), for which the melting point fell in the range of 198 to 200 °C. Turning to `Clc1ncnc2[nH]ccc12`, the melting point fell in the range of 195 to 197 °C. With `NCc1cccc(NC(=O)N2CCCC2)c1` the figure was 128 to 130 °C. With `CC(=O)NC(C)c1ccc(-c2csc(N)n2)cc1` (stereo not given) the figure was 225 to 227 °C.

`CCOc1ccc(C(=O)CC)cc1OCC` came in with a melting point of 39 to 41 °C.

In the case of `Clc1cc(Cl)c(SSc2cc(Cl)c(Cl)cc2Cl)cc1Cl`, the melting point was 140 to 144 °C.

Compound `Cc1cc(C)cc(C(=O)N2CCCC(C(=O)O)C2)c1` (stereo not given) had a melting point of 188 to 190 °C. With `CCCNC(=O)CN1CCNCC1` the figure was 31 to 32 °C; with `O=c1c(Cl)c(Cl)cnn1-c1ccc(F)cc1F`, 173 to 175 °C. `CC(C)NC(=O)C(C#N)=CN(C)C` displayed a melting point of 113 to 115 °C. With `Nc1ncc(Cc2cc(Cl)ccc2Cl)s1` the figure was 110 to 114 °C; with `O=C(O)CCS(=O)(=O)N1CCOCC1`, 163 to 165 °C; with `Cc1cc([N+](=O)[O-])ccc1C#N`, 99 to 101 °C.

As for `Cc1cc(Cl)nc(-c2ccncc2)n1`, the melting point was 119 to 121 °C. With `O=C(O)c1cccc(Cl)c1O` the figure was 173 to 175 °C; with `Nc1ccc(-c2cncnc2)cc1`, 208 to 210 °C; with `CC(C)(C)OC(=O)N(CC(=O)O)C1CC1`, 90 to 92 °C. `Cc1ncsc1C(=O)Cl` yielded a melting point of 62 to 64 °C. With `O=C(O)c1cccc(COc2cccc(F)c2)c1` the figure was 108 to 110 °C; with `O=C(Nc1cccc(NC(=O)c2ccco2)c1)OCC(F)(F)F`, 167 to 169 °C. With `Cn1cc(C(=O)O)c(-c2ccc([N+](=O)[O-])cc2)n1` the figure was 299 to 301 °C. With `Cc1cc2ncn(C(C)c3ccccc3)c2cc1C` (stereo not given) the figure was 169 to 171 °C; with `O=C(O)c1ccc(NS(=O)(=O)c2ccc3c(c2)OCCO3)cc1`, 94 to 97 °C; with `CC(O)CS(C)(=O)=O` (stereo not given), 51 to 53 °C. `O=C(CCCl)Nc1ccc(Br)cc1` showed a melting point of 126 to 128 °C. With `NS(=O)(=O)c1ccc(N2CCOCC2)c(C(=O)O)c1` the figure was 277 to 279 °C.

`COCCNC(N)=O` came in with a melting point of 72 to 74 °C. `CC1CCCCC1NC(=O)CCl` (stereo not given) registered a melting point of 100 to 102 °C. With `CN(C)C(=O)c1cccc(C#N)c1` the figure was 87 to 89 °C; with `CCOC(=O)C(=O)Cc1ccc2ccccc2n1`, 130 to 132 °C; with `COc1ccc(/C=C(/C(=O)O)c2cccs2)cc1`, 205 to 207 °C. With `CN(C(=O)c1ccco1)c1ccccc1C(=O)O`, the melting point was in the range of 189 to 191 °C.

`C1CCc2nnc(CN3CCNCC3)n2CC1` showed a melting point of 158 to 162 °C.

`CCc1cc(Cl)nc(-c2ccc([N+](=O)[O-])cc2)n1` had a melting point of 103 to 105 °C. With `CCOC(=O)c1sc(-c2ccc(Cl)cc2)cc1N` the figure was 200 to 202 °C; with `O=C1OC(=O)C(Cl)=C1Cl`, 107 to 109 °C; with `CC(=O)N1CCN(S(=O)(=O)c2ccc(C(=O)O)cc2)CC1`, 277 to 279 °C. The compound `CC(C)(C)OC(=O)N1CCC(CCC(=O)O)CC1` gave a melting point of 99 to 101 °C. With `CCN(CC)S(=O)(=O)c1ccc(O)c(N)c1` the figure was 74 to 76 °C. Regarding `Cc1cccc(Cn2cccc(C(=O)O)c2=O)c1`, the melting point lay in the range of 189 to 191 °C. The compound `CC(N)=NS(=O)(=O)c1cc(Br)ccc1Br` showed a melting point of 182 to 184 °C. With `CC(C)(C)OC(=O)Nc1ccc(O)cc1` the figure was 131 to 133 °C. With `CC(C)(C)NS(=O)(=O)c1cccc(N)c1` the figure was 137 to 139 °C; with `CNS(=O)(=O)c1ccc(C(=O)O)o1`, 164 to 166 °C; with `O=C(O)c1c(F)ccc(S(=O)(=O)Cl)c1F`, 107 to 111 °C. With `Cc1cccc(-c2nc(CCl)no2)c1` the figure was 44 to 46 °C; with `Cc1ccc(NC(=O)Nc2ccccc2)cc1N`, 201 to 203 °C; with `Nc1nc(CN2CCN(c3ncccn3)CC2)cs1`, 158 to 160 °C.

In turn, `Cc1ccccc1-n1c(S)nc2ccccc2c1=O` yielded a melting point of 96 to 97 °C. With `CC1CNc2cccnc2O1` (stereo not given) the figure was 132 to 134 °C; with `O=C(O)CCNC(=O)Cc1ccccc1`, 109 to 111 °C.

In the case of `CC(C)Cc1ccc(C(=O)O)cc1`, the melting point lay within 144 to 146 °C.

In the case of `NS(=O)(=O)c1cccc(NC(=O)c2ccccc2Cl)c1`, the melting point is 93 to 96 °C. As for `COC(=O)c1sc2ccccc2c1S(=O)(=O)Cl`, the melting point lay within 98 to 100 °C. With `NC(=O)C1CCC(O)CC1` (stereo not given) the figure was 204 to 206 °C; with `CC(Nc1ccc(C(=O)O)cc1[N+](=O)[O-])c1ccccn1` (stereo not given), 204 to 206 °C; with `Nc1cccc(-c2cn3cccnc3n2)c1`, 125 to 130 °C.

As for `Cc1nnnn1-c1cc(N)ccc1C(=O)O`, the melting point was 203 to 205 °C. The compound `O=C(c1cccnc1)c1cc2ccccc2o1` had a melting point of 106 to 108 °C. With `CC(=O)c1ccc(S(=O)(=O)CC(F)F)cc1` the figure was 97 to 99 °C; with `Cc1ccc(CNC(=O)c2nnc(CCl)s2)cc1`, 153 to 155 °C; with `CCOC(=O)Cc1ncccc1C(=O)O`, 128 to 130 °C. With `Nc1cc(OCC(F)(F)F)cc(OCC(F)(F)F)c1` the figure was 50 to 52 °C. The compound `O=C(O)C1CC(=O)N(Cc2ccccc2)C1` (stereo not given) registered a melting point of 140 to 144 °C.

Compound `Nc1cccc(NC(=O)CCn2cccn2)c1` yielded a melting point of 104 to 106 °C. Compound `CC1(C#N)CCN(C(=O)C(F)(F)F)CC1` gave a melting point of 41 to 43 °C. In the case of `O=[N+]([O-])c1c(CCl)nc2ccccn12`, the melting point was in the range of 152 to 154 °C.

Regarding `NC(=O)NC1CCCc2ccccc21` (stereo not given), the melting point is 204 to 206 °C. With `Cc1c(S(=O)(=O)Cl)sc2cc(F)ccc12` the figure was 138 to 140 °C. Consider `O=C(O)C1CCN(c2ncccn2)CC1`, for which the melting point was in the range of 94 to 96 °C. The compound `Cc1cccc(Oc2ccc(Cl)cc2N)c1` yielded a melting point of 93 to 97 °C.

`Cc1cc(C(=O)CCl)c(C)n1-c1ccon1` showed a melting point of 87 to 89 °C. `CN(C)C(=O)COc1ccc(N)cc1` displayed a melting point of 129 to 131 °C.

`O=C(O)CCNC(=O)c1ccc2ccccc2c1` yielded a melting point of 179 to 181 °C. The compound `CC(C)C(NC(=O)C=Cc1ccc(C(N)=O)cc1)C(=O)O` (stereo not given) gave a melting point of 235 to 237 °C.
